Consider eight molecules from patent US8841312B2, “Fused pyridine, pyrimidine and triazine compounds as cell cycle inhibitors” (Amgen Inc., priority 2007, dated 2014).

A word on the IC50: it is the concentration that gives 50% inhibition.

One assay concerns neointima formation. As to conditions: animal models; cited from earlier work.
The target of the next assay is Cdk4/CyclinD1 (Homo sapiens (Human), UniProt P11802). The experiment in a line: Cdk4 kinase inhibition assay with recombinant Cdk4/CyclinD1, Rb substrate, [33P]-ATP filter plate. The class given is biochemical. As to conditions: 25 μM ATP, read-out: Cdk 4 IC50. Put shortly:
(§1)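 Recombinant Cdk4/CyclinD1 or Cdk6/CyclinD3 phosphorylated Rb protein with [33P]-ATP for 1 h at room temperature. Protein was TCA-precipitated on filter plates and bound radioactivity counted. IC50 by nonlinear regression.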

For the next assay, the target named is Cdk6/CyclinD3 (Homo sapiens (Human), UniProt Q00534). The experiment in a line: Cdk6 kinase inhibition assay with recombinant Cdk6/CyclinD3, Rb substrate, [33P]-ATP filter plate. As to conditions: 25 μM ATP, read-out: Cdk 6 IC50. The assay is classed as biochemical. An outline of the steps: as §1
Sequence of Cdk6/CyclinD3 (Q00534 whole entry): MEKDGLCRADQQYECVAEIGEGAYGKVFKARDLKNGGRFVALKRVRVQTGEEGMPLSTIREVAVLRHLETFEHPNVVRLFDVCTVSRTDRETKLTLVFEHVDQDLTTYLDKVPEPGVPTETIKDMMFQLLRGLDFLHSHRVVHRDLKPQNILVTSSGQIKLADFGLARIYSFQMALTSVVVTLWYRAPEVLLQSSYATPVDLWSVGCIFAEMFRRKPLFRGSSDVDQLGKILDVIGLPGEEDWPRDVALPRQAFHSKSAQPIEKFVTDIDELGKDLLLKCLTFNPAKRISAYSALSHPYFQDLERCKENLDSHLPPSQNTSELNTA
Sequence of Cdk6/CyclinD3 (P30281 whole entry partner): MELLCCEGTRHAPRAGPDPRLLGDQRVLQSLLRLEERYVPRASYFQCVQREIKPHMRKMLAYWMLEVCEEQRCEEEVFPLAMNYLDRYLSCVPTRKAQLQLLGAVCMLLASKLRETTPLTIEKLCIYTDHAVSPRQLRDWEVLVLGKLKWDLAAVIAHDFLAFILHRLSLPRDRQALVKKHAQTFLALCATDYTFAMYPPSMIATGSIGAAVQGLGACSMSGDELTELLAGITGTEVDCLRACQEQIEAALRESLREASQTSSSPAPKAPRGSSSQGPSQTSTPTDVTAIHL

Sequence of Cdk4/CyclinD1 (P11802 whole entry): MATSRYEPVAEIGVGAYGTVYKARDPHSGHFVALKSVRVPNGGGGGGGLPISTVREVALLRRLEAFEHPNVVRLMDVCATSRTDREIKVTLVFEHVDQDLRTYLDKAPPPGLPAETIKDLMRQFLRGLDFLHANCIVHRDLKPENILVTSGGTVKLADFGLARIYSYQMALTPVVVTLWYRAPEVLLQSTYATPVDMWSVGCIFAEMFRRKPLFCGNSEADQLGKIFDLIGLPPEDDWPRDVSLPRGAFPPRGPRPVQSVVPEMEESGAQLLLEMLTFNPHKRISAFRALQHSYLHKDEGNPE
Sequence of Cdk4/CyclinD1 (P24385 whole entry partner): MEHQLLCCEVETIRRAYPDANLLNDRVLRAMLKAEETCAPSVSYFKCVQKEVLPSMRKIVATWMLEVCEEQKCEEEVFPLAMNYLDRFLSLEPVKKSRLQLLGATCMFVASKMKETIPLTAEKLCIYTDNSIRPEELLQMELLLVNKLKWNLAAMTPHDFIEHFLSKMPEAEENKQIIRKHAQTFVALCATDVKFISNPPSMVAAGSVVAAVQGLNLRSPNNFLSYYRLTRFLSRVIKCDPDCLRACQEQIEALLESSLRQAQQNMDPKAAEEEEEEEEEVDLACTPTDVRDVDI

Turning to `COc1ccc(CNc2nc(N(CCO)CCO)nc3c2ncn3C(C)C)cc1` [CVT-313], in the assay with neointima formation, the “inhibition of neointima formation” value was “significant inhibition of neointima formation”.

`CN(C)C1CCN(c2ccc(Nc3ncc4c5ccncc5n([C@@H]5CCNC5)c4n3)nc2)CC1` [Example 349]: the values for the IC50 on Cdk4/CyclinD1 and on Cdk6/CyclinD3 were 144 nM and 340 nM, respectively.

On to `OCC(CO)NC1CCN(c2ccc(Nc3ncc4c5ccncc5n(C5CCCC5)c4n3)nn2)CC1` [Example 445], for which the half-maximal inhibitory concentration (IC50) was found to be 2.2 nM at Cdk4/CyclinD1 and 6.3 nM at Cdk6/CyclinD3.

Regarding `O[C@H]1CCN(c2ccc(Nc3ncc4c5ccncc5n(C5CCCC5)c4n3)nn2)C1` [Example 19, (S)-9-cyclopentyl-N-(6-(3-hydroxypyrrolidin-1-yl)-3-pyridazinyl)-9H-pyrido[4′,3′:4,5]-pyrrolo[2,3d]pyrimidin-2-amine], the values for the IC50 at Cdk4/CyclinD1 and on Cdk6/CyclinD3 were 4 nM and 10 nM, respectively.

For `CCN(CCO)C1CCN(c2ccc(Nc3ncc4c5ccncc5n(C5CCCC5)c4n3)nn2)CC1` [Example 454], the IC50 is 5.2 nM on Cdk4/CyclinD1 and 11 nM on Cdk6/CyclinD3.

As to `N#Cc1ccc2c3cnc(Nc4ccc(N5CCNCC5)cn4)nc3n(C3CCCC3)c2c1` [Example 41, 9-Cyclopentyl-2-(5-piperazin-1-yl-pyridin-2-ylamino)-9H-pyrimido[4,5-b]indole-7-carbonitrile], the IC50 on Cdk4/CyclinD1 came out at 2.7 nM; on Cdk6/CyclinD3 it was 7.2 nM.

Turning to `C[C@H](CO)NC1CCN(c2ccc(Nc3ncc4c5ccncc5n(C5CCCC5)c4n3)nc2)CC1` [Example 436, (2R)-2-((1-(6-((9-cyclopentyl-9H-pyrido[4′,3′:4,5]pyrrolo[2,3-d]pyrimidin-2-yl)amino)-3-pyridinyl)-4-piperidinyl)amino)-1-propanol], the IC50 at Cdk4/CyclinD1 was determined as 13 nM; at Cdk6/CyclinD3 it was 5.1 nM.

For the molecule `CN(C)CCNC1CCN(c2ccc(Nc3ncc4c5ccncc5n(C5CCCC5)c4n3)nn2)CC1` [Example 480], the IC50 at Cdk4/CyclinD1 stood at 4.9 nM; at Cdk6/CyclinD3, 10 nM.
